According to patent publication US7799788B2, “Method of treating chronic myelogenous leukemia cells” (University of South Florida, priority 2006, dated 2010):

Key:
[1] = test system: LAMA-84 cells; assay: Apoptosis by Annexin-V staining (flow cytometry), LAMA-84 cells; format: cell-based, human; conditions: 10 nM dasatinib, 48 hours
Protocol: FIG. 1D. […] Following treatment, the percentages of annexin-V-stained apoptotic cells were measured by flow cytometry. Values represent the mean of three experiments±S.E.M.
Bcr-Abl-expressing, CML LAMA-84 and K562 cells were obtained and maintained in culture, as previously described. […] Following these treatments, cells or cell pellets were washed free of the drug(s) prior to the performance of the studies.

[2] = test system: K562 cells; assay: Apoptosis by Annexin-V staining (flow cytometry), K562 cells; format: cell-based, human; conditions: 10 nM dasatinib, 48 hours
Protocol: Untreated or drug-treated cells were stained with Annexin-V (Pharmingen, San Diego, Calif.) and propidium iodide (PI) and the percentage of apoptotic cells were determined by flow cytometry. […] The percentage of apoptotic cells was determined by flow cytometry. The combination index (CI) for each drug combination was obtained by median dose effect of Chou and Talalay utilizing the combination index equation within the commercially available software Calcusyn (Biosoft, Ferguson, Mo.).

[3] = test system: primary IM-resistant CML cells; assay: Percentage non-viable cells by trypan blue uptake, primary IM-resistant CML-BC cells; format: cell-based, human; conditions: 48 hours
Protocol: FIG. 6. […] Following this, the percentages of non-viable cells for each drug alone or drug combination were determined by trypan blue uptake in hemocytometer. Values represent the percentage of non-viable cells from each condition as compared to untreated cells.
Primary CML cells. CML cells from the peripheral blood and/or bone marrow of eleven patients who had met the clinical criteria of IM-resistant advanced phase of CML were harvested and purified, as previously described. Informed consents were signed by all patients to allow use of their cells for these experiments, as part of a clinical protocol approved by the University of South Florida Institutional Review Board (IRB).
Cells were stained with trypan blue (Sigma, St. Louis, Mo.).

[4] = test system: normal bone marrow progenitor cells (NBMC's); assay: Loss of survival of normal bone marrow progenitor cells; format: cell-based
[5] = test system: BaF3/Bcr-AblE255K cells; assay: Apoptosis by Annexin-V staining, BaF3/Bcr-AblE255K cells; conditions: 2.0 μM vorinostat, 48 hours
Protocol: After treatment, the percentage of Annexin-V-stained apoptotic cells was determined by flow cytometry.
BaF3/Bcr-Abl, BaF3/Bcr-AblE255K, and BaF3/Bcr-AblT315I cells were treated with the indicated concentrations of vorinostat for 48 hours. After treatment, the percentage of Annexin-V-stained apoptotic cells was determined by flow cytometry.
Following treatment, the percentage of annexin-V-stained apoptotic cells was determined by flow cytometry.
Stably expressing cells were then further selected by removal of IL-3.
Untreated or drug-treated cells were stained with Annexin-V (Pharmingen, San Diego, Calif.) and propidium iodide (PI) and the percentage of apoptotic cells were determined by flow cytometry. […] The percentage of apoptotic cells was determined by flow cytometry.

Row | Compound | apoptosis of LAMA-84 cells [1] | apoptosis of K562 cells [2] | loss of cell viability, samples #1 to #9 ([3]; IM-resistant primary CML cells, mutational status not determined) | effect on NBMC ([4]; dasatinib up to 20 nM) | loss of cell viability, all samples including #10 and #11 ([3]; 2.0 μM vorinostat alone) | loss of survival of NBMC ([4]; 2.0 μM vorinostat, mean of 2 samples) | apoptosis of BaF3/Bcr-AblE255K cells [5]
1 | Cc1nc(Nc2ncc(C(=O)Nc3c(C)cccc3Cl)s2)cc(N2CCN(CCO)CC2)n1 [dasatinib, N-(2-chloro-6-methylphenyl)-2-[[6-[4-(2-hydroxyethyl)-1-piperazinyl]-2-methyl-4-pyrimidinyl]amino]-5-thiazolecarboxamide] | approximately 90% | ~50% | induced loss of cell viability in a dose dependent manner | no effect | – | – | –
2 | O=C(CCCCCCC(=O)Nc1ccccc1)NO [vorinostat, suberoylanilide hydroxamic acid] | – | – | – | – | induced loss of cell viability in all of the samples | 15.9% | approximately 40%
